The text below walks through data of PubChem BioAssay (NCI).

Molecules are shown by their SMILES.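 Dose response: 5 concentrations. Exposure: 48 h. Format: 96-well plates. Endpoint: linear interpolation; highest concentration if not reached. GI50 = concentration required for 50% inhibition of growth. The concentration for full growth arrest is given as TGI.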

Among the test systems are K-562 leukemia; RPMI-8226 leukemia; M14 melanoma; HOP-92 NSCLC; LOX IMVI melanoma; RXF 393 renal; SK-MEL-5 melanoma; EKVX NSCLC; A549 NSCLC; MDA-MB-435.
What all share (experiment): NCI-60 cell line screen, 48 h

For the compound `S=C(SSC(=S)N1CCCCC1)N1CCCCC1`, the GI50 in the experiment with K-562 leukemia was 22.5 µM; in the experiment on RPMI-8226 leukemia, 12.9 µM; in the experiment on M14 melanoma, 8.34 µM; with HOP-92 NSCLC, 30.7 µM; in the experiment on LOX IMVI melanoma it was 5.64 µM; with RXF 393 renal, 14.2 µM. Besides, the GI50 in the experiment with SK-MEL-5 melanoma is 4.34 µM; with EKVX NSCLC it was 28.4 µM; in the experiment on A549 NSCLC, 24.1 µM; with MDA-MB-435 it was 22 µM. Further, the TGI is > 100 µM in the experiment on K-562 leukemia; 40.2 µM in the experiment with RPMI-8226 leukemia; 22.9 µM in the experiment on M14 melanoma; > 100 µM in the experiment with HOP-92 NSCLC; 18.1 µM with LOX IMVI melanoma; 35.8 µM in the experiment with RXF 393 renal. For the same compound, the TGI in the experiment on SK-MEL-5 melanoma was 59.8 µM; in the experiment with EKVX NSCLC, > 100 µM; in the experiment on A549 NSCLC, > 100 µM; in the experiment on MDA-MB-435, > 100 µM.
On to `COC(=O)CC1=C(C)/C(=C/c2[nH]c(-c3ccc[nH]3)cc2OC)N=C1C`, for which the GI50 is 0.218 µM in the experiment on K-562 leukemia; 0.0449 µM in the experiment with RPMI-8226 leukemia; 0.272 µM with M14 melanoma; 0.0571 µM in the experiment with HOP-92 NSCLC; 0.042 µM with LOX IMVI melanoma; 0.0611 µM with RXF 393 renal. For the same compound, the GI50 in the experiment on SK-MEL-5 melanoma is 0.0461 µM; in the experiment with EKVX NSCLC it was 0.584 µM; in the experiment with A549 NSCLC, 0.248 µM; in the experiment with MDA-MB-435, 0.311 µM. In addition, the TGI in the experiment on K-562 leukemia came out at 10.6 µM; in the experiment with RPMI-8226 leukemia, 0.499 µM; in the experiment on M14 melanoma it was 0.863 µM; with HOP-92 NSCLC, 0.337 µM; in the experiment with LOX IMVI melanoma, 0.159 µM; in the experiment on RXF 393 renal, 1.08 µM. In addition, the TGI with SK-MEL-5 melanoma is 0.107 µM; in the experiment on EKVX NSCLC, 10.1 µM; with A549 NSCLC, 3.69 µM; in the experiment with MDA-MB-435 it was 1.95 µM.
For the compound `CSc1nc2c(c(=O)n1C)C(c1ccccc1)C1=C(N2)/C(=C/c2ccccc2)CCC1` (stereo not given), the GI50 was 2.86 µM with K-562 leukemia; 5.31 µM in the experiment with RPMI-8226 leukemia; 6.56 µM with M14 melanoma; 36.6 µM in the experiment on HOP-92 NSCLC; 3.01 µM with LOX IMVI melanoma; 2.35 µM in the experiment on RXF 393 renal. Also, the GI50 is 3.58 µM in the experiment on SK-MEL-5 melanoma, 24.2 µM in the experiment on EKVX NSCLC, > 100 µM with A549 NSCLC and 3.99 µM with MDA-MB-435. Also, the TGI in the experiment on K-562 leukemia was > 100 µM; with RPMI-8226 leukemia, > 100 µM; with M14 melanoma it was > 100 µM; in the experiment on HOP-92 NSCLC, > 100 µM; with LOX IMVI melanoma it was 12.8 µM; with RXF 393 renal it was 6.21 µM. Moreover, the TGI with SK-MEL-5 melanoma, in the experiment on EKVX NSCLC, in the experiment on A549 NSCLC and with MDA-MB-435 was > 100 µM each time.
`Cc1cc(N(CCNc2ccnc3cc(Cl)ccc23)Cc2ccc3c(c2)OCO3)nc(N2CCCC2)n1`: the GI50 is 0.7 µM with K-562 leukemia; 1.47 µM in the experiment with RPMI-8226 leukemia; 1.83 µM with M14 melanoma; 0.695 µM in the experiment on HOP-92 NSCLC; 1.6 µM in the experiment with LOX IMVI melanoma; 1.28 µM in the experiment on RXF 393 renal. Also, the GI50 with SK-MEL-5 melanoma is 1.76 µM; in the experiment on EKVX NSCLC it was 2.74 µM; with A549 NSCLC, 1.67 µM; in the experiment on MDA-MB-435 it was 1.62 µM. For the same compound, the TGI is 3.2 µM with K-562 leukemia; 3.99 µM in the experiment on RPMI-8226 leukemia; 3.71 µM in the experiment with M14 melanoma; 2.86 µM with HOP-92 NSCLC; 3.16 µM in the experiment with LOX IMVI melanoma; 2.74 µM with RXF 393 renal. The TGI with SK-MEL-5 melanoma stood at 3.21 µM; in the experiment with EKVX NSCLC, 14.2 µM; in the experiment with A549 NSCLC it was 4.96 µM; with MDA-MB-435 it was 3.18 µM.
Turning to `CSc1ccc(C(=O)/C=C/c2ccc(Cl)cc2Cl)cc1`, the GI50 with K-562 leukemia was 6.48 µM; with RPMI-8226 leukemia, 14.7 µM; with M14 melanoma, 21.6 µM; in the experiment with HOP-92 NSCLC, 40.2 µM; with LOX IMVI melanoma, 20 µM; in the experiment with RXF 393 renal it was 16.4 µM. Besides, the GI50 in the experiment with SK-MEL-5 melanoma is 21.9 µM; with EKVX NSCLC it was 20.2 µM; in the experiment on A549 NSCLC, 17.7 µM; in the experiment on MDA-MB-435, 26.3 µM. Moreover, the TGI in the experiment with K-562 leukemia is 49.5 µM; in the experiment with RPMI-8226 leukemia, 37.7 µM; with M14 melanoma, 59.6 µM; in the experiment with HOP-92 NSCLC, > 100 µM; in the experiment on LOX IMVI melanoma, 37 µM; with RXF 393 renal, 36.2 µM. The TGI was 59 µM with SK-MEL-5 melanoma, 78.8 µM in the experiment on EKVX NSCLC, 40.5 µM in the experiment with A549 NSCLC and 88.3 µM in the experiment with MDA-MB-435.
